Test system: choroidal neovascularization (CNV)
Experiment: Laser-induced choroidal neovascularization (CNV) mouse model
Assay type: in vivo
Details: female C57BL/6J mice; 1 μg (FIG. 1A) or 3 μg (FIG. 1B) peptide injected in 1 μl in one eye immediately after laser; scramble peptide in contralateral eye; measured seven days after laser
Description: Since the histidine to serine substitution is a non-conserved amino acid change, experiments were performed to confirm that the engineered peptide retained the ability to block angiogenesis and fibrosis in a mouse model of choroidal neovascularization (CNV).
Mouse CNV was induced by laser photocoagulation-induced rupture of Bruch's membrane as previously described. Briefly, 7- to 8-week-old female C57BL/6J mice were anesthetized with ketamine hydrochloride (100 mg/kg body weight), and pupils were dilated with 1% tropicamide. Three burns of 532-nm diode laser photocoagulation (spot size, […]; duration, 0.1 sec; power, 120 mW) were delivered to each retina with the slit lamp delivery system of an OcuLight GL diode laser (Iridex, Mountain View, CA), using a coverslip as a contact lens to view the retina. Burns were performed at the 9, 12, and 3 o'clock positions of the posterior pole of the retina. […]
Immediately after laser treatment, mice were injected with either 1 μg (FIG. 1A) or 3 μg (FIG. 1B) of Peptide 110 (SEQ ID NO: 2), or one of three positive control peptides (Peptide 102, Peptide 105 or Peptide 107), in a volume of 1 μl in one eye and the contralateral eyes were injected with scramble peptide as control. […] After three washes with PBST, choroids were mounted on glass slides and were examined by fluorescence microscopy. […]

In the case of “PESKAIKNLLKAVHKEMSKRSP [Peptide 110, modified fragment of human CXCL10 with a cathepsin G and neutrophil elastase cleavage site]”, the “choroidal neovascularization (total area of choroidal NV at each rupture site); anti-angiogenic activity” value is reported as “significant reduction”.
